{
  "source": "patent US12685312B2",
  "about": "“Sulfonamide apyrase inhibitors” (Texas Crop Science, Inc., priority 2022, dated 2026)",
  "data": [
    {"test_system": "apyrase", "experiment": "Screen for apyrase inhibitors (Method 1, in vitro phosphate-release absorbance assay)", "assay_type": "biochemical", "settings": "inhibitor conc at 1 mM stock, 1 hr room temperature, absorbance 630 nm; rounded average of two assay results", "method_in_brief": "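Phosphate-release colorimetric assay (Windsor method) in 60 mM Hepes, 3 mM MgCl2, 3 mM CaCl2, 3 mM ATP, pH 6.5, with compound or DMSO control added. Released phosphate developed with ammonium molybdate and ascorbic acid/TCA, then stopped with citrate/acetic acid.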", "units": {"% Inhibition of Apyrase": "%"}, "values": [
      {"smiles": "COc1ccc(NC(=O)c2cccc(S(=O)(=O)N3c4ccccc4CC3C)c2)cc1OC", "note": "(stereo not shown) [I-449, N-(3,4-dimethoxyphenyl)-3-((2-methylindolin-1-yl)sulfonyl)benzamide]", "% Inhibition of Apyrase": 61},
      {"smiles": "O=C(CNC(=O)c1ccccc1F)Nc1cccc(S(=O)(=O)Nc2ccc(Br)cc2)c1", "note": "[I-205, N-(2-((3-(N-(4-bromophenyl)sulfamoyl)phenyl)amino)-2-oxoethyl)-2-fluorobenzamide]", "% Inhibition of Apyrase": 74},
      {"smiles": "N#Cc1cccc(NC(=O)c2ccc(S(=O)(=O)Nc3ccc(Cl)cc3)cc2)c1", "note": "[I-185, 4-(N-(4-chlorophenyl)sulfamoyl)-N-(3-cyanophenyl)benzamide]", "% Inhibition of Apyrase": 77},
      {"smiles": "O=C(Nc1ccc(F)c([N+](=O)[O-])c1)c1ccc(S(=O)(=O)Nc2ccc(Cl)cc2)cc1", "note": "[I-4, 4-(N-(4-chlorophenyl)sulfamoyl)-N-(4-fluoro-3-nitrophenyl)benzamide]", "% Inhibition of Apyrase": 73},
      {"smiles": "O=C(Nc1cccc([N+](=O)[O-])c1)c1cccc(S(=O)(=O)Nc2cccc([N+](=O)[O-])c2)c1", "note": "[I-32, N-(3-nitrophenyl)-3-(N-(3-nitrophenyl)sulfamoyl)benzamide]", "% Inhibition of Apyrase": 21},
      {"smiles": "O=C(Nc1nccs1)c1cccc(NS(=O)(=O)c2ccc(Br)cc2)c1", "note": "[I-661, 3-((4-bromophenyl)sulfonamido)-N-(thiazol-2-yl)benzamide]", "% Inhibition of Apyrase": 26},
      {"smiles": "O=C(c1ccc(Cl)c(S(=O)(=O)N2CCc3ccccc32)c1)N1CCc2ccccc21", "note": "[I-448, (4-chloro-3-(indolin-1-ylsulfonyl)phenyl)(indolin-1-yl)methanone]", "% Inhibition of Apyrase": 61},
      {"smiles": "COc1ccccc1NC(=O)c1cccc(S(=O)(=O)N2CCc3ccccc32)c1", "note": "[I-467, 3-(indolin-1-ylsulfonyl)-N-(2-methoxyphenyl)benzamide]", "% Inhibition of Apyrase": 59},
      {"smiles": "O=C(Nc1ccc2c(c1)OCO2)c1ccc(NS(=O)(=O)c2cccc(F)c2)cc1", "note": "[I-953, N-(benzo[d][1,3]dioxol-5-yl)-4-((3-fluorophenyl)sulfonamido)benzamide]", "% Inhibition of Apyrase": 26},
      {"smiles": "O=C(Nc1cccc(S(=O)(=O)Nc2ccc(Br)cc2)c1)c1ccsc1", "note": "[I-701, N-(3-(N-(4-bromophenyl)sulfamoyl)phenyl)thiophene-3-carboxamide]", "% Inhibition of Apyrase": 79},
      {"smiles": "COc1ccccc1C(=O)Nc1cccc(S(=O)(=O)Nc2ccc(Br)cc2)c1", "note": "[I-331, N-(3-(N-(4-bromophenyl)sulfamoyl)phenyl)-2-methoxybenzamide]", "% Inhibition of Apyrase": 64},
      {"smiles": "O=C(Nc1ccc(S(=O)(=O)Nc2ccccc2Cl)cc1)c1ccc(C(F)(F)F)cc1", "note": "[I-971, N-(4-(N-(2-chlorophenyl)sulfamoyl)phenyl)-4-(trifluoromethyl)benzamide]", "% Inhibition of Apyrase": 67},
      {"smiles": "O=C(c1ccccc1NS(=O)(=O)c1cccc(C(F)(F)F)c1)N1CCc2ccccc21", "note": "[I-375, N-(2-(indoline-1-carbonyl)phenyl)-3-(trifluoromethyl)benzenesulfonamide]", "% Inhibition of Apyrase": 43},
      {"smiles": "O=C(Nc1ccc2c(c1)OC1(CCCC1)O2)c1ccc(NS(=O)(=O)c2ccccc2)cc1", "note": "[I-908, 4-(phenylsulfonamido)-N-(spiro[benzo[d][1,3]dioxole-2,1′-cyclopentan]-5-yl)benzamide]", "% Inhibition of Apyrase": 61},
      {"smiles": "O=C(Nc1ccccc1NS(=O)(=O)c1cccs1)c1ccc(Br)cc1", "note": "[I-830, 4-bromo-N-(2-(thiophene-2-sulfonamido)phenyl)benzamide]", "% Inhibition of Apyrase": 60},
      {"smiles": "O=C(Nc1nc2ccccc2[nH]1)c1cccc(NS(=O)(=O)c2ccc3c(c2)OCCCO3)c1", "note": "[I-635, N-(1H-benzo[d]imidazol-2-yl)-3-((3,4-dihydro-2H-benzo[b][1,4]dioxepine)-7-sulfonamido)benzamide]", "% Inhibition of Apyrase": 58},
      {"smiles": "COc1ccccc1N(C)S(=O)(=O)c1ccc(C(=O)N2CCSc3ccccc32)cc1", "note": "[I-867, 4-(3,4-dihydro-2H-benzo[b][1,4]thiazine-4-carbonyl)-N-(2-methoxyphenyl)-N-methylbenzenesulfonamide]", "% Inhibition of Apyrase": 58},
      {"smiles": "CN(c1ccccc1)S(=O)(=O)c1cccc(NC(=O)c2ccc(Br)o2)c1", "note": "[I-722, 5-bromo-N-(3-(N-methyl-N-phenylsulfamoyl)phenyl)furan-2-carboxamide]", "% Inhibition of Apyrase": 57},
      {"smiles": "O=C(Nc1ccccc1)c1cccc(S(=O)(=O)Nc2ccc3c(c2)OCO3)c1", "note": "[I-264, 3-(N-(benzo[d][1,3]dioxol-5-yl)sulfamoyl)-N-phenylbenzamide]", "% Inhibition of Apyrase": 59},
      {"smiles": "O=C(CNC(=O)c1ccc(Br)cc1)Nc1cccc(S(=O)(=O)Nc2ccc(Br)cc2)c1", "note": "[I-195, 4-bromo-N-(2-((3-(N-(4-bromophenyl)sulfamoyl)phenyl)amino)-2-oxoethyl)benzamide]", "% Inhibition of Apyrase": 70},
      {"smiles": "O=C(NCCCCO)c1cccc(S(=O)(=O)Nc2ccc(Br)cc2)c1", "note": "[I-286, 3-(N-(4-bromophenyl)sulfamoyl)-N-(4-hydroxybutyl)benzamide]", "% Inhibition of Apyrase": 13},
      {"smiles": "O=C(Nc1cccc(NS(=O)(=O)c2ccc(Cl)cc2)c1)c1ccc2[nH]nnc2c1", "note": "[I-340, N-(3-((4-chlorophenyl)sulfonamido)phenyl)-1H-benzo[d][1,2,3]triazole-5-carboxamide]", "% Inhibition of Apyrase": 65},
      {"smiles": "O=C(Nc1ccccc1)c1cccc(NS(=O)(=O)c2cccs2)c1", "note": "[I-658, N-phenyl-3-(thiophene-2-sulfonamido)benzamide]", "% Inhibition of Apyrase": 32},
      {"smiles": "O=C(Nc1ccccc1C(=O)N1CCCCC1)c1cccc(S(=O)(=O)N2CCc3ccccc32)c1", "note": "[I-572, 3-(indolin-1-ylsulfonyl)-N-(2-(piperidine-1-carbonyl)phenyl)benzamide]", "% Inhibition of Apyrase": 50},
      {"smiles": "CCN(CC)S(=O)(=O)c1cccc(NC(=O)c2ccc(S(=O)(=O)N3CCCc4ccccc43)cc2)c1", "note": "[I-868, N-(3-(N,N-diethylsulfamoyl)phenyl)-4-((3,4-dihydroquinolin-1(2H)-yl)sulfonyl)benzamide]", "% Inhibition of Apyrase": 58},
      {"smiles": "C=CCN(c1ccc(Cl)cc1)S(=O)(=O)c1ccc(Cl)c(C(=O)N2CCc3ccccc32)c1", "note": "[I-486, N-allyl-4-chloro-N-(4-chlorophenyl)-3-(indoline-1-carbonyl)benzenesulfonamide]", "% Inhibition of Apyrase": 58},
      {"smiles": "Cc1cc(Cl)ccc1NC(=O)c1ccc(Cl)c(S(=O)(=O)Nc2ccc(Cl)cc2C)c1", "note": "[I-433, 4-chloro-N-(4-chloro-2-methylphenyl)-3-(N-(4-chloro-2-methylphenyl)sulfamoyl)benzamide]", "% Inhibition of Apyrase": 65},
      {"smiles": "CCc1ccccc1NC(=O)c1cccc(S(=O)(=O)N2CCc3ccccc32)c1", "note": "[I-566, N-(2-ethylphenyl)-3-(indolin-1-ylsulfonyl)benzamide]", "% Inhibition of Apyrase": 51},
      {"smiles": "O=C(Nc1ccccc1NS(=O)(=O)c1ccc(F)cc1)c1cccc(S(=O)(=O)C(F)(F)F)c1", "note": "[I-833, N-(2-((4-fluorophenyl)sulfonamido)phenyl)-3-((trifluoromethyl)sulfonyl)benzamide]", "% Inhibition of Apyrase": 58},
      {"smiles": "O=C(Nc1ccc2c(c1)OCO2)c1cccc(S(=O)(=O)N2CCc3ccccc32)c1", "note": "[I-451, N-(benzo[d][1,3]dioxol-5-yl)-3-(indolin-1-ylsulfonyl)benzamide]", "% Inhibition of Apyrase": 60},
      {"smiles": "COc1ccccc1NC(=O)c1ccc(NS(=O)(=O)c2cccc(C(F)(F)F)c2)cc1", "note": "[I-919, N-(2-methoxyphenyl)-4-((3-(trifluoromethyl)phenyl)sulfonamido) benzamide]", "% Inhibition of Apyrase": 58},
      {"smiles": "O=C(Nc1nccs1)c1cccc(NS(=O)(=O)c2ccc3c(c2)OCCCO3)c1", "note": "[I-644, 3-((3,4-dihydro-2H-benzo[b][1,4]dioxepine)-7-sulfonamido)-N-(thiazol-2-yl)benzamide]", "% Inhibition of Apyrase": 54},
      {"smiles": "O=C(Nc1ccc(SC(F)F)cc1)c1ccccc1S(=O)(=O)N1CCCCC1", "note": "[I-353, N-(4-((difluoromethyl)thio)phenyl)-2-(piperidin-1-ylsulfonyl)benzamide]", "% Inhibition of Apyrase": 44},
      {"smiles": "COc1ccc(NC(=O)c2cccc(S(=O)(=O)N(C)c3ccc(OC)cc3)c2)cc1", "note": "[I-514, N-(4-methoxyphenyl)-3-(N-(4-methoxyphenyl)-N-methylsulfamoyl)benzamide]", "% Inhibition of Apyrase": 56},
      {"smiles": "O=C(Nc1ccc(OC(F)F)cc1)c1ccc(NS(=O)(=O)c2ccccc2)cc1", "note": "[I-952, N-(4-(difluoromethoxy)phenyl)-4-(phenylsulfonamido)benzamide]", "% Inhibition of Apyrase": 36},
      {"smiles": "CCOc1ccc(NS(=O)(=O)c2ccc(C(=O)Nc3cccc(C#N)c3)cc2)cc1", "note": "[I-211, N-(3-cyanophenyl)-4-(N-(4-ethoxyphenyl)sulfamoyl)benzamide]", "% Inhibition of Apyrase": 76},
      {"smiles": "O=C(Nc1ccc(F)cc1)c1ccc(S(=O)(=O)Nc2cccc(C(F)(F)F)c2)cc1", "note": "[I-193, N-(4-fluorophenyl)-4-(N-(3-(trifluoromethyl)phenyl)sulfamoyl)benzamide]", "% Inhibition of Apyrase": 74},
      {"smiles": "Cc1nc2ccc(NC(=O)c3cccc(S(=O)(=O)Nc4ccc5c(c4)OCO5)c3)cc2s1", "note": "[I-261, 3-(N-(benzo[d][1,3]dioxol-5-yl)sulfamoyl)-N-(2-methylbenzo[d]thiazol-6-yl)benzamide]", "% Inhibition of Apyrase": 60},
      {"smiles": "O=C(Nc1ccc(F)c(Cl)c1)c1cccc(S(=O)(=O)Nc2ccc3c(c2)OCO3)c1", "note": "[I-190, 3-(N-(benzo[d][1,3]dioxol-5-yl)sulfamoyl)-N-(3-chloro-4-fluorophenyl)benzamide]", "% Inhibition of Apyrase": 73},
      {"smiles": "CC(C)(C)c1ccc(C(=O)Nc2ccccc2NS(=O)(=O)c2cccc(S(N)(=O)=O)c2)cc1", "note": "[I-838, 4-(tert-butyl)-N-(2-((3-sulfamoylphenyl)sulfonamido)phenyl) benzamide]", "% Inhibition of Apyrase": 29}
    ]}
  ]
}
